# According to ChEMBL document CHEMBL1201862, “PubChem BioAssay data set” (2004):
#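 Exposure lasted 48 hours, with cells grown in 96-well plates and compounds tested at five concentrations. GI50: concentration for 50% inhibition of growth.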 Active and inactive are the calls of the source. No stated cut-off is given here; in the data, active = GI50 up to about 1.1 µM and inactive = higher.
# What was measured:
# Assay in all cases: inhibition of tumour cell growth, NCI panel, 48 h
# [1] = test system: UO-31
# [2] = test system: OVCAR-3
# [3] = test system: RPMI-8226
# [4] = test system: SF-268
# [5] = test system: HOP-92
# [6] = test system: K562
# [7] = test system: HCC 2998
# [8] = test system: U-251
# [9] = test system: CCRF-CEM
# [10] = test system: CAKI-1
# [11] = test system: SNB-19
# [12] = test system: HOP-62
# [13] = test system: KM-20L2
# [14] = test system: UACC-257
# [15] = test system: SW-620
# [16] = test system: A549
# [17] = test system: KM12
# [18] = test system: EKVX
# [19] = test system: NCI-H226
# [20] = test system: MOLT-4
# [21] = test system: Malme-3M
# [22] = test system: ACHN
# [23] = test system: LOX IMVI
# [24] = test system: RXF 393
# [25] = test system: SN12C
# [26] = test system: HT-29
# [27] = test system: UACC-62
# [28] = test system: OVCAR-5
# [29] = test system: SF-539
# [30] = test system: DLD-1
# [31] = test system: XF498
# [32] = test system: SNB-75
# [33] = test system: SF-295
# [34] = test system: SK-MEL-5
# [35] = test system: HCT-116
# [36] = test system: A498
# [37] = test system: SK-MEL-28
# [38] = test system: TK-10
# [39] = test system: LXFL 529
# [40] = test system: RXF 631
# [41] = test system: OVCAR-4
# [42] = test system: IGROV-1
# [43] = test system: NCI-H23
# [44] = test system: HCT-15
# [45] = test system: DMS-114
# [46] = test system: M19-MEL
# [47] = test system: SK-MEL-2
# [48] = test system: 786-0
# [49] = test system: OVCAR-8
# [50] = test system: M14
# [51] = test system: NCI-H460
# [52] = test system: NCI-H522
# [53] = test system: DMS-273
# [54] = test system: HL-60
# [55] = test system: SR
# [56] = test system: COLO 205
# [57] = test system: SK-OV-3
# [58] = test system: SNB-78
compound,measurement,setting,value
CC(=O)OCC1OC(n2cnc3c(I)nc(I)nc32)C(OC(C)=O)C1OC(C)=O (centres undefined),GI50,[1],17.7 µM (inactive)
same,GI50,[2],7.55 µM (inactive)
same,GI50,[3],10.9 µM (inactive)
same,GI50,[4],13.4 µM (inactive)
same,GI50,[5],3.18 µM (inactive)
same,GI50,[6],3.69 µM (inactive)
same,GI50,[7],5.21 µM (inactive)
same,GI50,[8],10.4 µM (inactive)
same,GI50,[9],3.8 µM (inactive)
same,GI50,[10],2.02 µM (inactive)
same,GI50,[11],12.5 µM (inactive)
same,GI50,[12],18.8 µM (inactive)
same,GI50,[13],17.6 µM (inactive)
same,GI50,[14],14.1 µM (inactive)
same,GI50,[15],13.8 µM (inactive)
same,GI50,[16],17.7 µM (inactive)
same,GI50,[17],4.48 µM (inactive)
same,GI50,[18],18.5 µM (inactive)
same,GI50,[19],19.4 µM (inactive)
same,GI50,[20],8.13 µM (inactive)
same,GI50,[21],18.7 µM (inactive)
same,GI50,[22],10 µM (inactive)
same,GI50,[23],14 µM (inactive)
same,GI50,[24],17.3 µM (inactive)
same,GI50,[25],13.5 µM (inactive)
same,GI50,[26],6.4 µM (inactive)
same,GI50,[27],13.6 µM (inactive)
same,GI50,[28],20.8 µM (inactive)
same,GI50,[29],16.1 µM (inactive)
same,GI50,[30],10.8 µM (inactive)
same,GI50,[31],20.9 µM (inactive)
same,GI50,[32],15.1 µM (inactive)
same,GI50,[33],20.5 µM (inactive)
same,GI50,[34],13.3 µM (inactive)
same,GI50,[35],4.91 µM (inactive)
same,GI50,[36],22.2 µM (inactive)
same,GI50,[37],14.9 µM (inactive)
same,GI50,[38],19.3 µM (inactive)
same,GI50,[39],13.4 µM (inactive)
same,GI50,[40],15.5 µM (inactive)
same,GI50,[41],4.71 µM (inactive)
same,GI50,[42],6.35 µM (inactive)
same,GI50,[43],4.66 µM (inactive)
same,GI50,[44],4.58 µM
same,GI50,[45],4.21 µM (inactive)
same,GI50,[46],3.66 µM (inactive)
same,GI50,[47],17.1 µM (inactive)
same,GI50,[48],14.3 µM (inactive)
same,GI50,[49],10.3 µM (inactive)
same,GI50,[50],17.2 µM (inactive)
same,GI50,[51],17.7 µM (inactive)
same,GI50,[52],1.91 µM (inactive)
same,GI50,[53],6.84 µM (inactive)
same,GI50,[54],2.47 µM (inactive)
same,GI50,[55],3.13 µM (inactive)
COC1=CC(=O)[C@]2(C)[C@H](C1=O)C(C)[C@H]2c1ccccc1 (some centres undefined),GI50,[1],> 100 µM (inactive)
same,GI50,[2],> 100 µM (inactive)
same,GI50,[3],> 100 µM (inactive)
same,GI50,[4],> 100 µM (inactive)
same,GI50,[56],> 100 µM (inactive)
same,GI50,[5],> 100 µM (inactive)
same,GI50,[6],> 100 µM (inactive)
same,GI50,[7],> 100 µM (inactive)
same,GI50,[8],> 100 µM (inactive)
same,GI50,[9],> 100 µM (inactive)
same,GI50,[10],> 100 µM (inactive)
same,GI50,[11],> 100 µM (inactive)
same,GI50,[12],> 100 µM (inactive)
same,GI50,[14],> 100 µM (inactive)
same,GI50,[15],> 100 µM (inactive)
same,GI50,[16],> 100 µM (inactive)
same,GI50,[17],> 100 µM (inactive)
same,GI50,[18],> 100 µM (inactive)
same,GI50,[19],> 100 µM (inactive)
same,GI50,[20],> 100 µM (inactive)
same,GI50,[21],> 100 µM (inactive)
same,GI50,[22],> 100 µM (inactive)
same,GI50,[23],> 100 µM (inactive)
same,GI50,[24],> 100 µM (inactive)
same,GI50,[26],> 100 µM (inactive)
same,GI50,[27],> 100 µM (inactive)
same,GI50,[28],> 100 µM (inactive)
same,GI50,[29],> 100 µM (inactive)
same,GI50,[30],> 100 µM (inactive)
same,GI50,[31],> 100 µM (inactive)
same,GI50,[32],> 100 µM (inactive)
same,GI50,[33],> 100 µM (inactive)
same,GI50,[34],> 100 µM (inactive)
same,GI50,[36],> 100 µM (inactive)
same,GI50,[37],> 100 µM (inactive)
same,GI50,[38],> 100 µM (inactive)
same,GI50,[39],> 100 µM (inactive)
same,GI50,[40],> 100 µM (inactive)
same,GI50,[41],> 100 µM (inactive)
same,GI50,[42],> 100 µM (inactive)
same,GI50,[43],> 100 µM (inactive)
same,GI50,[57],> 100 µM (inactive)
same,GI50,[44],> 100 µM
same,GI50,[46],> 100 µM (inactive)
same,GI50,[47],> 100 µM (inactive)
same,GI50,[48],> 100 µM (inactive)
same,GI50,[49],> 100 µM (inactive)
same,GI50,[50],> 100 µM (inactive)
same,GI50,[51],> 100 µM (inactive)
same,GI50,[52],> 100 µM (inactive)
same,GI50,[58],> 100 µM (inactive)
same,GI50,[53],> 100 µM (inactive)
same,GI50,[54],> 100 µM (inactive)
same,GI50,[55],> 100 µM (inactive)
